*1 amine or outer side, *2 acyl side, *3 side chain or, on linkers, in order; H or OH if unused. Where a SMILES comes first, the peptide text is derived from it. Bridges are numbered along the chain shown (N, C = ends). Side-chain parts run from the residue outwards. [ ]: non-standard residue; d: D form. The star is where a group is joined. C20 diacid = O=C(O)CCCCCCCCCCCCCCCCCCC(=O)*; γGlu = O=C(O)[C@H](CCC(=O)[*:2])N[*:1]; AEEA = NCCOCCOCC(=O)O; Aib = CC(C)(N)C(=O)O
Biological target: T1, human GLP-1 receptor (GLP-1R) (Homo sapiens, UniProt P43220)
T1 construct: expressed in transfected cells
T1 sequence (P43220 24-463): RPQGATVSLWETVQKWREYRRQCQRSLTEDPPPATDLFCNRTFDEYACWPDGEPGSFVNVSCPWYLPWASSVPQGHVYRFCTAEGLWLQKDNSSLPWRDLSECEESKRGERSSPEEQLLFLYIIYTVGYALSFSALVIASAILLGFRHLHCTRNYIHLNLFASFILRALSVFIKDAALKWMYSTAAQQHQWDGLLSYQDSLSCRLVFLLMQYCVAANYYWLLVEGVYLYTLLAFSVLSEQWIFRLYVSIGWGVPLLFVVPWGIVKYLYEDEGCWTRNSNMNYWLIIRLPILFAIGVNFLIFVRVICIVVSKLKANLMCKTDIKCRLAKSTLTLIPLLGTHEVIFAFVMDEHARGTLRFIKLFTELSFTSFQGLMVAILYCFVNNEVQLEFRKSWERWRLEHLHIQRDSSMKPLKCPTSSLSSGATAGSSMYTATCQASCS
Assay: cAMP accumulation assay, CHO-K1 cells stably expressing human GLP-1R
Format: cell-based
Conditions: cAMP accumulation, mean pEC50, Table 10
Description: In the presence of the non-specific cAMP/cGMP phosphodiesterase inhibitor, 3-isobutyl-1-methylxanthine (IBMX), accumulating cAMP can be measured in vitro using common detection methods. Thus, it is possible to estimate an in vitro potency (pEC50) for peptides activating each of these receptors using fit dose-response curves for cAMP accumulation.
CHO-K1 cells stably expressing human GLP-1R (Genebank accession #NM_002062) were grown in 90% F12-K media supplemented with 10% FBS and 250 μg/ml G418.
On day 1, CHO-K1 cells were plated at 1.5 million cells per T75 flask in 90% F12-K media supplemented with 10% FBS. On day 3 cells were transfected with 40 mcg of each expression plasmid using Lipofectamine 2000 transfection reagent. On day 5, cells were dispensed at 1000 cells per well in white 384-well OptiPlates in 5 mcL of assay buffer consisting of 1×HBSS, 5 mM HEPES, 0.5 mM IBMX, and 0.1% casein.
Peptides were serially diluted 4-fold in assay buffer to final concentrations ranging from 1×10^−9 M to 9.5×10^−16 M. Two assay controls consisting of 50 mcM forskolin (cAMP system maximum) or assay buffer only (cAMP system minimum) were also prepared. Five microliters of each peptide-concentration, or assay control, was added to triplicate wells and incubated for thirty minutes at room temperature. During this incubation step a 4× europium labelled cAMP tracer solution and a 4× Ulight®-anti-cAMP solution (consisting of an anti-cAMP monoclonal antibody labelled with Ulight™ dye) was prepared according to the manufacturer's protocol (PerkinElmer LANCE Ultra cAMP kit). Following this incubation, 5 mcL europium labelled cAMP and 5 mcL Ulight anti-cAMP antibody was added to each well. The plate was covered to prevent evaporation and incubated for 60 minutes at room temperature in the dark. Plates were read on an Envision fluorescent plate reader (PerkinElmer).
Test values were first normalized to the system maximum and system minimum averaged values in Excel using the formula: (test value−system min average)/(system max average -system min average)*100. Normalized test values represent a baseline corrected percentage of the system maximum cAMP response induced by forskolin. Data from up to 3 replicate tests were analyzed for each peptide. Potency values were estimated using GraphPad Prism software (v7.04) by fitting data to a 4-parameter logistic curve model: Y=Bottom+(Top−Bottom)/(1+10^((LogEC50−X))). The Hill slope was constrained to 1.0. EC50 values were converted to pEC50 values using the formula: pEC50=−Log (EC50).

Q: For CC(C)C[C@H](NC(=O)[C@H](Cc1ccc(O)cc1)NC(=O)[C@H](CCCCN)NC(=O)[C@H](CO)NC(=O)[C@H](Cc1ccc(O)cc1)NC(=O)[C@H](CC(=O)O)NC(=O)[C@H](CO)NC(=O)[C@@H](NC(=O)[C@H](Cc1ccccc1)NC(=O)[C@@H](NC(=O)CNC(=O)[C@H](Cc1c[nH]cn1)NC(=O)[C@H](CO)NC(=O)[C@@H](N)Cc1ccc(O)cc1)[C@@H](C)O)[C@@H](C)O)C(=O)N[C@@H](CC(=O)O)C(=O)N[C@@H](CCCCNC(=O)CC[C@H](NC(=O)CC[C@H](NC(=O)COCCOCCNC(=O)CCCCCCCCCCCCCCCCCCC(=O)O)C(=O)O)C(=O)O)C(=O)N[C@@H](CCCCN)C(=O)N[C@@H](Cc1ccc(O)cc1)C(=O)N[C@@H](C)C(=O)N[C@@H](CO)C(=O)N[C@@H](CCC(=O)O)C(=O)N[C@@H](Cc1ccccc1)C(=O)N[C@H](C(=O)NC(C)(C)C(=O)N[C@@H](Cc1c[nH]c2ccccc12)C(=O)N[C@@H](CC(C)C)C(=O)N[C@@H](CCC(=O)O)C(=O)N[C@@H](CO)C(=O)N[C@@H](CCC(=O)O)C(=O)N1CCC[C@H]1C(=O)N[C@@H](CO)C(=O)N[C@@H](CO)C(=O)NCC(=O)N[C@@H](C)C(=O)N1CCC[C@H]1C(=O)N1CCC[C@H]1C(=O)N1CCC[C@H]1C(=O)N[C@@H](CO)C(=O)O)C(C)C [Compound A24] (H-YSHGTFTSDYSKYLDK([γGlu-γGlu-AEEA-C20 diacid])KYASEFV[Aib]WLESEPSSGAPPPS-OH; N-terminus assumed), which EC50 is on record?
A: > 1 nM

Q: For CC(C)C[C@@H]1NC(=O)[C@H](Cc2c[nH]c3ccccc23)NC(=O)[C@@H](NC(=O)[C@@H](NC(=O)[C@H](Cc2ccccc2)NC(=O)[C@H](CCCCNC(=O)CC[C@H](NC(=O)CC[C@H](NC(=O)COCCOCCNC(=O)CCCCCCCCCCCCCCCCCCC(=O)O)C(=O)O)C(=O)O)NC(=O)[C@H](CCC(N)=O)NC(=O)[C@H](C)NC(=O)[C@H](Cc2ccc(O)cc2)NC(=O)[C@H](CCCCN)NC(=O)C(C)(C)NC(=O)[C@H](CC(=O)O)NC(=O)[C@H](CC(C)C)NC(=O)[C@H](Cc2ccc(O)cc2)NC(=O)[C@H](CCCCN)NC(=O)[C@H](CO)NC(=O)[C@H](Cc2ccc(O)cc2)NC(=O)[C@H](CC(=O)O)NC(=O)[C@H](CO)NC(=O)[C@@H](NC(=O)[C@H](Cc2ccccc2)NC(=O)[C@@H](NC(=O)CNC(=O)[C@H](Cc2c[nH]cn2)NC(=O)[C@H](CO)NC(=O)[C@@H](N)Cc2ccc(O)cc2)[C@@H](C)O)[C@@H](C)O)C(C)C)CCCCNC(=O)C[C@@H](C(=O)N[C@@H](CCC(=O)O)C(=O)N2CCC[C@H]2C(=O)N[C@@H](CO)C(=O)N[C@@H](CO)C(=O)NCC(=O)N[C@@H](C)C(=O)N2CCC[C@H]2C(=O)N2CCC[C@H]2C(=O)N2CCC[C@H]2C(=O)N[C@@H](CO)C(=O)O)NC(=O)[C@H](CCC(=O)O)NC1=O [Compound A30] (H-YSHGTFTSDYSKYLD[Aib]KYAQK([γGlu-γGlu-AEEA-C20 diacid])FVKWLEDEPSSGAPPPS-OH; lactam 24-28), which EC50 is on record?
A: > 1 nM

Reference: US20240228572A1 (i2o Therapeutics, Inc., priority 2020, published 2024)
